According to PMC7990037 (Nature cancer, 2020):
Structures can show the parent of a compound that is named as a salt.

Key:
[1] = parallel artificial membrane permeability assay; type: in vitro ADME; conditions: PAMPA, compared to high and low permeability controls
epithelial cells MDCK = assay: MDCK permeability assay; type: in vitro ADME
ENPP2 = ENPP2 (Homo sapiens, UniProt Q13822); assay: ENPP2 inhibition assay; type: biochemical
[2] = Pharmacokinetics of STF-1084; conditions: in vivo
4T1-luc tumors = assay: Established orthotopic 4T1-luc tumor growth with IR and cGAMP; type: in vivo, mouse
[3] = biological target: T1, alkaline phosphatase (ALPL) (Homo sapiens, UniProt P05186); assay: ALPL inhibition assay; type: biochemical
T1 sequence (P05186 18-524): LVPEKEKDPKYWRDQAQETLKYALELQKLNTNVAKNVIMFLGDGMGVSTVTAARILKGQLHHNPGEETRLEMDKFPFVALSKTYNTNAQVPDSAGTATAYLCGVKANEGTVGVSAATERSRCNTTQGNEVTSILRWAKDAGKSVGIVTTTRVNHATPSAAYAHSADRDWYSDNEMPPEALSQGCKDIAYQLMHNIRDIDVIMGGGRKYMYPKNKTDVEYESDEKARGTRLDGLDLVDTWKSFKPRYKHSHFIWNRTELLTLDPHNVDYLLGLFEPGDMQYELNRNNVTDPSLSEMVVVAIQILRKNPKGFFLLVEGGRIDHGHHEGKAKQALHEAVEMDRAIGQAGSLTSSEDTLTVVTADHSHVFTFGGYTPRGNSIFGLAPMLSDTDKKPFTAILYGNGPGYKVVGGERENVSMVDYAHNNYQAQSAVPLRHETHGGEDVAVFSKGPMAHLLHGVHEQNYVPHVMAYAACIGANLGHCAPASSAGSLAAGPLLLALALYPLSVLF

[4] = Liver microsome stability, mouse; conditions: liver microsomes
primary human PBMCs [5] = assay: PBMC toxicity; conditions: 16 h
[6] = Liver microsome stability, human; conditions: liver microsomes
Caco-2 monolayer = assay: Caco-2 permeability assay; type: in vitro ADME; conditions: Caco-2, apical to basolateral, 2 hours
4T1-luc cells = assay: Extracellular cGAMP measurement in cancer cell lines; type: cell-based, mouse
[7] = tested on: cGAMP exporter(s) in 293T cGAS ENPP1−/− cells; assay: Intracellular and extracellular cGAMP in 293T cGAS ENPP1−/− cells; conditions: 24 hours; STF-1084 10 μM; STF-1623 2 μM; QS1 in ENPP1 null cells
CD14+ PBMCs = assay: Stimulation of CD14+ PBMCs with extracellular cGAMP; type: cell-based, human; conditions: soluble extracellular cGAMP, 16 h
[8] = biological target: T2, human ENPP1 transfected into 293T cGAS ENPP1−/− cells (Homo sapiens, UniProt P22413); assay: cGAMP export assay in ENPP1-transfected cells; type: cell-based
T2 sequence (P22413 1-925): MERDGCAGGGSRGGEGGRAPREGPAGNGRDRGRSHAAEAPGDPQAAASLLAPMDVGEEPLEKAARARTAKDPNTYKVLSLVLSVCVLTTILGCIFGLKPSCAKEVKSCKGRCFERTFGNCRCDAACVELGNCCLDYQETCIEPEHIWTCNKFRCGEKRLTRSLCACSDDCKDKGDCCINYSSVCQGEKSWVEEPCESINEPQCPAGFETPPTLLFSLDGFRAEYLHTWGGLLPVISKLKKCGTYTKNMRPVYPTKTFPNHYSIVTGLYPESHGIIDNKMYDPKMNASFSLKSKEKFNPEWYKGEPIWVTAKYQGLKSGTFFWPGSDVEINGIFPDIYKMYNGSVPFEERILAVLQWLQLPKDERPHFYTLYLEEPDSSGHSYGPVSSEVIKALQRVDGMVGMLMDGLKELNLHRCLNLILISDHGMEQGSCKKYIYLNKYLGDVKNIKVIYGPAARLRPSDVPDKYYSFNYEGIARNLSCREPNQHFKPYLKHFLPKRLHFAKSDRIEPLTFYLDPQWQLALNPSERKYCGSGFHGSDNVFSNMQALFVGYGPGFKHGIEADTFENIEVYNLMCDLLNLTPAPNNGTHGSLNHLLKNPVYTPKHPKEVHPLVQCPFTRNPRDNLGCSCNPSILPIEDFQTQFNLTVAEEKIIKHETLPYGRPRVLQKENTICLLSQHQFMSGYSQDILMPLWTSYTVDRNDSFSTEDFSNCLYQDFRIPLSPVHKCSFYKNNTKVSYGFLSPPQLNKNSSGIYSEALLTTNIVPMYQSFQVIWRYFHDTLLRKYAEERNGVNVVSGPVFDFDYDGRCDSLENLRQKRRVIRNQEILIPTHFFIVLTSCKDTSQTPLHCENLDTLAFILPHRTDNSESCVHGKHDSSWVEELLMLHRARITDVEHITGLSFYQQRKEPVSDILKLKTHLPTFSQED

primary human PBMCs [9] = conditions: 200 nM cGAMP electroporated, 16 h; 50 μM STF-1084; 2 μM STF-1623
Panc02 tumors = assay: Panc02 syngeneic subcutaneous pancreatic tumor model; type: in vivo, mouse; conditions: subcutaneous pump, 50 mg/kg/day
purified mouse ENPP1 = biological target: T3, purified mouse ENPP1 (Mus musculus, UniProt P06802); assay: 32P-cGAMP degradation TLC assay; type: biochemical
T3 sequence (P06802 85-906 limits assumed): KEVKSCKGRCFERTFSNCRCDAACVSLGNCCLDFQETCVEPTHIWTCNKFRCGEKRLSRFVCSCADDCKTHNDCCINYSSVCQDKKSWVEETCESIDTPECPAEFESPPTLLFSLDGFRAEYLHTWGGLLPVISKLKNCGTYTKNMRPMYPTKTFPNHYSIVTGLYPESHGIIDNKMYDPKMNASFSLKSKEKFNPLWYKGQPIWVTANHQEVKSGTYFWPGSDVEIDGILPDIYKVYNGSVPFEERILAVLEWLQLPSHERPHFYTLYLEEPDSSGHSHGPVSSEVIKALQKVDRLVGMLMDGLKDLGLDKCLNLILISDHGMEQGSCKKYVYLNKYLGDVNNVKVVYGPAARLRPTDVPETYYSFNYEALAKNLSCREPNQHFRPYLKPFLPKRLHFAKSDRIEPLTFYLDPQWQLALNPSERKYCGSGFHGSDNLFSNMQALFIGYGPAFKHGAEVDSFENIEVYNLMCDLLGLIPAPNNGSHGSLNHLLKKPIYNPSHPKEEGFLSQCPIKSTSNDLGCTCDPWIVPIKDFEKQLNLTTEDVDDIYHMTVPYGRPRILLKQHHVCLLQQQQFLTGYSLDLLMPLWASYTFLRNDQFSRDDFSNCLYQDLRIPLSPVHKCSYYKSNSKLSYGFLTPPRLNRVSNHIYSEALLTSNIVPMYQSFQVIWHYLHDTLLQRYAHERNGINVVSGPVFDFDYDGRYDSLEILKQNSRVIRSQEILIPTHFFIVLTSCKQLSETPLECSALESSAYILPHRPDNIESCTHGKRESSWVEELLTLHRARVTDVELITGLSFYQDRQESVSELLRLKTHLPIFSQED

[10] = Pharmacokinetics of STF-1623 after subcutaneous injection; type: in vivo, mouse

COc1cc2ncnc(N3CCC(CCP(=O)(O)O)CC3)c2cc1OC [STF-1084, dimethyl (2-(1-(6,7-dimethoxyquinazolin-4-yl)piperidin-4-yl)ethyl)phosphonic acid hydrogen bromide salt]
permeability category [1]: impermeable
permeability category (epithelial cells MDCK): impermeable
Ki (ENPP2): 5500 nM
pharmacokinetics (in words) [2]: fast pharmacokinetics
tumor free survival (4T1-luc tumors; IR (20 Gy) + 10 μg cGAMP + 100 μL of 1 mM STF-1084 intratumoral on day 2, 4, 7): 1/10
Ki [3]: > 100000 nM
half-life [4]: > 2.65 h
toxicity to PBMCs (primary human PBMCs [5]; 100 μM): non-toxic
half-life [6]: > 2.65 h
permeability category (Caco-2 monolayer): impermeable
extracellular cGAMP (4T1-luc cells; 4T1-luc, 48 hours, serum-containing media, 50 μM STF-1084): 3,000,000 molecules/cell
effect on intracellular / extracellular cGAMP (cGAMP export) [7]: no effect on intracellular cGAMP

Nc1nc2c(ncn2[C@@H]2O[C@@H]3COP(=O)(O)O[C@H]4[C@@H](O)[C@H](n5cnc6c(N)ncnc65)O[C@@H]4COP(=O)(O)O[C@@H]2[C@@H]3O)c(=O)[nH]1 [cGAMP, 2’3’-cyclic GMP-AMP]
cGAMP concentration to which CD14+ PBMCs respond by upregulating IFNB1 (CD14+ PBMCs): submicromolar
tumor free survival (4T1-luc tumors; Enpp1−/− 4T1-luc tumors, IR (20 Gy) + three intratumoral injections of 10 μg cGAMP): 3/11
survival (4T1-luc tumors; WT 4T1-luc tumors, IR (20 Gy) + three intratumoral injections of 10 μg cGAMP): no mice inoculated with WT tumors survived

COc1cccc2c(N3CCC(CCP(=O)(O)O)CC3)ncnc12 [STF-1623, (2-(1-(8-methoxyquinazolin-4-yl)piperidin-4-yl)ethyl)phosphonic acid]
permeability category [1]: cell impermeable
permeability category (epithelial cells MDCK): cell impermeable
IC50 [8]: 68 nM
cytokine production (IFNB1, CXCL10 mRNA) after cGAMP electroporation (primary human PBMCs [9]): no effect on cytokine production
tumor growth, combination with IR (Panc02 tumors; day 0 to 8, IR (20 Gy) on day 1): synergized with IR to delay tumor growth
tumor growth, single agent (Panc02 tumors; day 0 to 8, no IR): delayed tumor growth as a single agent
Ki (purified mouse ENPP1): 16 nM
half-life [4]: > 2.65 h
concentration at 24 h ([10]; mouse, plasma, sc, 300 mg/kg): > 100 nM
pharmacokinetic profile (in words) ([10]; systemic dosing): improved pharmacokinetic profile compared to STF-1084
toxicity to PBMCs (primary human PBMCs [5]): not toxic
half-life [6]: > 2.65 h
permeability category (Caco-2 monolayer): cell impermeable
effect on intracellular / extracellular cGAMP (cGAMP export) [7]: affected only extracellular cGAMP concentrations

B1: mENPP1: purified soluble recombinant mouse ENPP1, cGAMP hydrolase (protein, UniProt P06802 80-906, looked up)
extracellular domain: KPSCAKEVKSCKGRCFERTFSNCRCDAACVSLGNCCLDFQETCVEPTHIWTCNKFRCGEKRLSRFVCSCADDCKTHNDCCINYSSVCQDKKSWVEETCESIDTPECPAEFESPPTLLFSLDGFRAEYLHTWGGLLPVISKLKNCGTYTKNMRPMYPTKTFPNHYSIVTGLYPESHGIIDNKMYDPKMNASFSLKSKEKFNPLWYKGQPIWVTANHQEVKSGTYFWPGSDVEIDGILPDIYKVYNGSVPFEERILAVLEWLQLPSHERPHFYTLYLEEPDSSGHSHGPVSSEVIKALQKVDRLVGMLMDGLKDLGLDKCLNLILISDHGMEQGSCKKYVYLNKYLGDVNNVKVVYGPAARLRPTDVPETYYSFNYEALAKNLSCREPNQHFRPYLKPFLPKRLHFAKSDRIEPLTFYLDPQWQLALNPSERKYCGSGFHGSDNLFSNMQALFIGYGPAFKHGAEVDSFENIEVYNLMCDLLGLIPAPNNGSHGSLNHLLKKPIYNPSHPKEEGFLSQCPIKSTSNDLGCTCDPWIVPIKDFEKQLNLTTEDVDDIYHMTVPYGRPRILLKQHHVCLLQQQQFLTGYSLDLLMPLWASYTFLRNDQFSRDDFSNCLYQDLRIPLSPVHKCSYYKSNSKLSYGFLTPPRLNRVSNHIYSEALLTSNIVPMYQSFQVIWHYLHDTLLQRYAHERNGINVVSGPVFDFDYDGRYDSLEILKQNSRVIRSQEILIPTHFFIVLTSCKQLSETPLECSALESSAYILPHRPDNIESCTHGKRESSWVEELLTLHRARVTDVELITGLSFYQDRQESVSELLRLKTHLPIFSQED
modifications: extracellular domain
extracellular cGAMP signal (4T1-luc cells; 4T1-luc conditioned media incubated with 10 nM recombinant mENPP1 overnight): abolished the cGAMP signal
